Here are results for 12 compounds from patent US12590066B2, “Fused-heterocyclyl-carbonohydrazonoyl dicyanide compounds and use thereof” (KOREA INSTITUTE OF SCIENCE AND TECHNOLOGY, priority 2020, dated 2026).

For one series, the system named is Tau-BiFC cells. Kind of series: Cell viability (stained nuclei count) in Tau-BiFC cells. The series is classed as cell-based. The conditions noted are these: 10 μM compound, 48 hours; Forskolin-only group = 100% cell viability. As to the method:
In order to select novel tau protein aggregation-inhibiting substances, tau-BiFC cell model, in which formation of tau oligomers in living cells is easily observed, was used. Tau-BiFC cells were aliquoted into a 384-well plate. On the next day, the cells were treated with each of the compounds prepared according to Examples 1 to 57 at concentrations of 1 μM, 3 μM, and 10 μM, together with Forskolin (at a treatment concentration of 30 μM), which is a compound inducing tau protein aggregation by activating tau phosphorylase PKA. After 48 hours, nuclei in the cells were stained using Hoechst (at a treatment concentration of 2 μg/mL), and BiFC fluorescence intensity was automatically measured using Operetta (PerkinElmer) to count stained nuclei in each well out of the entire well plate. The group treated only with Forskolin, which induces tau protein aggregation, was set to a reference point of a 100% tau protein-aggregated state, and the effects of the compounds were confirmed using the equation “BiFC fluorescence intensity due to compound synthesized according to embodiment of present invention/(fluorescence intensity of control group treated only with Forskolin inducing tau protein aggregation−fluorescence intensity of untreated control group)×100”. Furthermore, the degree of cytotoxicity induced by the newly synthesized compound was also measured based on the 100% cell viability of the group treated only with Forskolin as a reference, and the cytotoxicity value of each compound was calculated using the equation “(number of stained nuclei in group treated with compound/number of stained nuclei in group treated with Forskolin)×100”. Based on the treatment results, substances inhibiting intracellular tau protein aggregation were selected from a series of candidate groups showing a tau protein aggregation inhibition rate of 70% or more and cell viability of 100% at a compound treatment concentration of 10 μM or more. […]

A further series has as its target T1, tau protein (Homo sapiens, UniProt P10636).
T1 construct: BiFC fluorescent-protein fragments (type and halves not specified); expressed in transfected cells
The series is described as follows: Tau-BiFC cell model, inhibition of Forskolin-induced tau protein aggregation. The series is classed as cell-based. The conditions noted are these: Forskolin 30 μM, 48 hours; for Tau BiFC in cells Response (% @10 μM): 10 μM compound, Forskolin-only group = 100% tau protein-aggregated state; for IC50: tau-BiFC cells. The protocol: In order to select novel tau protein aggregation-inhibiting substances, tau-BiFC cell model, in which formation of tau oligomers in living cells is easily observed, was used. Tau-BiFC cells were aliquoted into a 384-well plate. On the next day, the cells were treated with each of the compounds prepared according to Examples 1 to 57 at concentrations of 1 μM, 3 μM, and 10 μM, together with Forskolin (at a treatment concentration of 30 μM), which is a compound inducing tau protein aggregation by activating tau phosphorylase PKA. After 48 hours, nuclei in the cells were stained using Hoechst (at a treatment concentration of 2 μg/mL), and BiFC fluorescence intensity was automatically measured using Operetta (PerkinElmer) to count stained nuclei in each well out of the entire well plate. The group treated only with Forskolin, which induces tau protein aggregation, was set to a reference point of a 100% tau protein-aggregated state, and the effects of the compounds were confirmed using the equation “BiFC fluorescence intensity due to compound synthesized according to embodiment of present invention/(fluorescence intensity of control group treated only with Forskolin inducing tau protein aggregation−fluorescence intensity of untreated control group)×100”. Furthermore, the degree of cytotoxicity induced by the newly synthesized compound was also measured based on the 100% cell viability of the group treated only with Forskolin as a reference, and the cytotoxicity value of each compound was calculated using the equation “(number of stained nuclei in group treated with compound/number of stained nuclei in group treated with Forskolin)×100”. Based on the treatment results, substances inhibiting intracellular tau protein aggregation were selected from a series of candidate groups showing a tau protein aggregation inhibition rate of 70% or more and cell viability of 100% at a compound treatment concentration of 10 μM or more.
In order to evaluate dose-dependent tau protein aggregation inhibition effects of the compounds selected according to Experimental Example 1 on tau protein aggregation, tau-BiFC cells were treated with the selected compounds at concentrations of 0.03 μM, […], 0.3 μM, 1 μM, 3 μM, 10 μM, and 30 μM, respectively, together with Forskolin (at a treatment concentration of 30 μM), which is a tau protein aggregation-inducing substance. After 48 hours, tau protein aggregation reaction and degrees of cytotoxicity were analyzed by observing images of the cells. IC50 and toxicity of the compounds were analyzed by way of nonlinear regression analysis of prism software (Graph Pad).

T1 sequence (P10636 1-441 isoform P10636-8): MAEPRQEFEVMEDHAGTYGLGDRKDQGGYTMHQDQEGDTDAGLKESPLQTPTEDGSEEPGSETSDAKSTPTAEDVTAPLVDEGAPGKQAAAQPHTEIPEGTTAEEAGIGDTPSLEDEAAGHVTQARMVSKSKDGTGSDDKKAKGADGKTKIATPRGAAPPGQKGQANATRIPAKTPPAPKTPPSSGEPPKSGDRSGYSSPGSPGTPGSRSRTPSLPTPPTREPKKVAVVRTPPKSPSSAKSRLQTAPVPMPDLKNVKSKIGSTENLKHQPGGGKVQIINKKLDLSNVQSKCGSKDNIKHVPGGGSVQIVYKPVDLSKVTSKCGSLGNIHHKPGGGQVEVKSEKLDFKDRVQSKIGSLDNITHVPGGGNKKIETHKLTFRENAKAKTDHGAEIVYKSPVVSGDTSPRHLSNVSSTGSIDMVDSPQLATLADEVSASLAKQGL

In the case of `N#CC(C#N)=NNc1ccc2cc[nH]c(=O)c2c1` [Compound 1, (1-oxo-1,2-dihydroisoquinolin-7-yl)carbonohydrazonoyl dicyanide], in the series with Tau-BiFC cells, the “Cell viability (% @10 μM)” value came out at 152.9%. Also, at tau protein, the “Tau BiFC in cells Response (% @10 μM)” value came to 0% and 130 nM corresponded to half-maximal inhibition (IC50).

On to `N#CC(C#N)=NNc1ccc2[nH]c(=O)ccc2c1` [Compound 8, (2-oxo-1,2-dihydroquinolin-6-yl)carbonohydrazonoyl dicyanide], for which the “Cell viability (% @10 μM)” value in the series with Tau-BiFC cells was 152.5%. For the same compound, at tau protein, the “Tau BiFC in cells Response (% @10 μM)” value is given as 0% and half-maximal inhibition (IC50) required 430 nM.

In the case of `Cn1c(=O)n(C)c2cc(NN=C(C#N)C#N)c(F)cc21` [Compound 9, (6-fluoro-1,3-dimethyl-2-oxo-2,3-dihydro-1H-benzo[d]imidazol-5-yl)carbonohydrazonoyl dicyanide], the “Cell viability (% @10 μM)” value in the series with Tau-BiFC cells was determined as 155.3%. Moreover, at tau protein, the “Tau BiFC in cells Response (% @10 μM)” value was found to be 0% and half-maximal inhibition (IC50) required 170 nM.

`Cn1c(=O)ccc2cc(NN=C(C#N)C#N)ccc21` [Compound 25, (1-methyl-2-oxo-1,2-dihydroquinolin-6-yl)carbonohydrazonoyl dicyanide]: in the series with Tau-BiFC cells, the “Cell viability (% @10 μM)” value is 118%. Also, on tau protein, the “Tau BiFC in cells Response (% @10 μM)” value was −16% and it took 20 nM to reach half-maximal inhibition (IC50).

As for `Cc1cc(=O)[nH]c2ccc(NN=C(C#N)C#N)cc12` [Compound 26, (4-methyl-2-oxo-1,2-dihydroquinolin-6-yl)carbonohydrazonoyl dicyanide], the “Cell viability (% @10 μM)” value with Tau-BiFC cells turned out to be 120%. In addition, on tau protein, the “Tau BiFC in cells Response (% @10 μM)” value is −5% and the half-maximal inhibitory concentration (IC50) amounted to 770 nM.

In the case of `Cn1c(=O)oc2ccc(NN=C(C#N)C#N)cc21` [Compound 28, (3-methyl-2-oxo-2,3-dihydrobenzo[d]oxazol-5-yl)carbonohydrazonoyl dicyanide], the “Cell viability (% @10 μM)” value with Tau-BiFC cells amounted to 134%. Besides, the “Tau BiFC in cells Response (% @10 μM)” value on tau protein is recorded as 13%.

`N#CC(C#N)=NNc1ccc2oc(=O)n(C(F)F)c2c1` [Compound 30, (3-(difluoromethyl)-2-oxo-2,3-dihydrobenzo[d]oxazol-5-yl)carbonohydrazonoyl dicyanide]: the “Cell viability (% @10 μM)” value with Tau-BiFC cells is on record as 127%. Besides, the “Tau BiFC in cells Response (% @10 μM)” value on tau protein is on record as 36%.

For `Cc1cc2c(cc1NN=C(C#N)C#N)n(C)c(=O)n2C` [Compound 31, (1,3,6-trimethyl-2-oxo-2,3-dihydro-1H-benzo[d]imidazol-5-yl)carbonohydrazonoyl dicyanide], in the series on Tau-BiFC cells, the “Cell viability (% @10 μM)” value turned out to be 119%. At tau protein, the “Tau BiFC in cells Response (% @10 μM)” value worked out at 47%.

Regarding `COc1cc2c(cc1NN=C(C#N)C#N)n(C)c(=O)n2C` [Compound 32, (6-methoxy-1,3-dimethyl-2-oxo-2,3-dihydro-1H-benzo[d]imidazol-5-yl)carbonohydrazonoyl dicyanide], the “Cell viability (% @10 μM)” value with Tau-BiFC cells is listed as 132%. The “Tau BiFC in cells Response (% @10 μM)” value on tau protein is recorded as 38%.

For the compound `CCn1c(=O)n(C(F)F)c2cc(NN=C(C#N)C#N)ccc21` [Compound 39, (3-(difluoromethyl)-1-ethyl-2-oxo-2,3-dihydro-1H-benzo[d]imidazol-5-yl)carbonohydrazonoyl dicyanide], the “Cell viability (% @10 μM)” value in the series on Tau-BiFC cells was found to be 106%. Further, at tau protein, the “Tau BiFC in cells Response (% @10 μM)” value is listed as −45% and the IC50 was found to be 10 nM.

Regarding `Cn1c(=O)n(C2CC2)c2ccc(NN=C(C#N)C#N)cc21` [Compound 40, (1-cyclopropyl-3-methyl-2-oxo-2,3-dihydro-1H-benzo[d]imidazol-5-yl)carbonohydrazonoyl dicyanide], the “Cell viability (% @10 μM)” value with Tau-BiFC cells was 122%. Moreover, at tau protein, the “Tau BiFC in cells Response (% @10 μM)” value is listed as −38% and it took 30 nM to reach half-maximal inhibition (IC50).

Regarding `CCn1c(=O)n(C2CC2)c2ccc(NN=C(C#N)C#N)cc21` [Compound 41, (1-cyclopropyl-3-ethyl-2-oxo-2,3-dihydro-1H-benzo[d]imidazol-5-yl)carbonohydrazonoyl dicyanide], the “Cell viability (% @10 μM)” value in the series on Tau-BiFC cells was 112%. Besides, at tau protein, the “Tau BiFC in cells Response (% @10 μM)” value is −54% and the IC50 came to 20 nM.

For orientation: IC50 means the concentration that gives 50% inhibition. Low values mean greater potency in that assay, high ones weaker potency in that assay.
